The text below walks through data of US11938122B2, “5-[[4-[2-[5-(1-hydroxyethyl)pyridin-2-yl]ethoxy]phenyl]methyl]-1,3- thiazolidine-2,4-dione for treating nonalcoholic fatty liver disease” (Minoryx Therapeutics S.L., priority 2016, dated 2024).

pIC50: −log10 of the molar value. A value given as a limit tells only on which side of the number the result lay.

By pIC50 is commonly meant the IC50 on a negative log10 scale, so that one unit is a factor of ten. Lower therefore signals a high IC50.

What all share (format): in vitro ADME
Data set [1] concerns the target T1, CYP1A2 (Homo sapiens, UniProt P05177).
T1 construct: in incubations with a pool of human liver microsomes; from tissue; host or cells: pooled human liver microsomes
T1 sequence (P05177 1-516): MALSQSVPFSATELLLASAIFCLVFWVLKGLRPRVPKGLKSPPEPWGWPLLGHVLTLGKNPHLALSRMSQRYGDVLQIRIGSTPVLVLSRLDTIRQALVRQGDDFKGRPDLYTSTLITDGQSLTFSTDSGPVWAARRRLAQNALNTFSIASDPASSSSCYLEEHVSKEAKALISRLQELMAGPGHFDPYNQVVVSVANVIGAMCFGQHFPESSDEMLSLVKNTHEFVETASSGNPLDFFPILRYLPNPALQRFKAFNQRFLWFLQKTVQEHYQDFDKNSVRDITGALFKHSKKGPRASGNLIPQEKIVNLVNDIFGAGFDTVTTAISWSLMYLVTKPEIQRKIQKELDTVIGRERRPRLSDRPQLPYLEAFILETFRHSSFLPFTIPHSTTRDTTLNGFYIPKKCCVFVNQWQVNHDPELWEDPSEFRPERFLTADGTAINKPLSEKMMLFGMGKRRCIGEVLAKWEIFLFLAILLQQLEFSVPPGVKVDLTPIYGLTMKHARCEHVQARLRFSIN
The data set can be described thus: CYP inhibition, cocktail incubation, pooled human liver microsomes. Conditions: reaction ACET. As for the experimental part:
(§1) Inhibition was screened using a cocktail incubation with CYP specific substrates for eight major drug metabolizing CYP enzymes (CYPs 1A2, 2A6, 2B6, 2C8, 2C9, 2C19, 2D6 and 3A4) in incubations with a pool of human liver microsomes. In reversible inhibition, MIN-102 was incubated with buffer, microsomes, cofactor NADPH and CYP-specific substrate cocktail mix for 15 min. In TDI study, buffer and microsomes were preincubated with MIN-102 in the presence and absence of cofactor NADPH for 0 or 30 min to elucidate the possible time-dependency of inhibition. Secondary incubation was conducted with CYP-specific substrate cocktail mix for 30 min. MIN-102 was used at final concentrations of 0.01, 0.1, 1, 10, and 100 μM in both assays.
(Liver microsomes are vesicles of endoplasmic reticulum, rich in cytochrome P450 enzymes.)

Another data set addresses T2, CYP3A4 (Homo sapiens, UniProt P08684).
T2 construct: in incubations with a pool of human liver microsomes; from tissue; host or cells: pooled human liver microsomes
The data set is described as above. As for the experimental part:
as §1

The subject of data set [2] is CYP1A2. The data set can be described thus: CYP induction in cryopreserved human hepatocytes. Particulars: 50 μM, hepatocytes from 3 human donors.
Data set [3] is described as follows: Stability in the hepatocyte incubation medium. Particulars: 50 μM, 24-hour incubation. As for the experimental part: The stability of MIN-102 in the incubation medium was assayed in parallel at the highest test concentration (50 μM) and quantified in incubation medium.
Another data set relates to CYP2B6. Nature of the data set: CYP induction in cryopreserved human hepatocytes. Conditions: 50 μM, hepatocytes from 3 human donors.
The test system of data set [4] is major drug metabolizing cytochrome P450 (CYP) enzymes. Nature of the data set: Reversible and time-dependent inhibition (TDI) of major CYP enzymes, human liver microsomes. Particulars: in vitro concentrations of 100 μM or lower. As for the experimental part: as §1

T2 sequence (P08684 whole entry): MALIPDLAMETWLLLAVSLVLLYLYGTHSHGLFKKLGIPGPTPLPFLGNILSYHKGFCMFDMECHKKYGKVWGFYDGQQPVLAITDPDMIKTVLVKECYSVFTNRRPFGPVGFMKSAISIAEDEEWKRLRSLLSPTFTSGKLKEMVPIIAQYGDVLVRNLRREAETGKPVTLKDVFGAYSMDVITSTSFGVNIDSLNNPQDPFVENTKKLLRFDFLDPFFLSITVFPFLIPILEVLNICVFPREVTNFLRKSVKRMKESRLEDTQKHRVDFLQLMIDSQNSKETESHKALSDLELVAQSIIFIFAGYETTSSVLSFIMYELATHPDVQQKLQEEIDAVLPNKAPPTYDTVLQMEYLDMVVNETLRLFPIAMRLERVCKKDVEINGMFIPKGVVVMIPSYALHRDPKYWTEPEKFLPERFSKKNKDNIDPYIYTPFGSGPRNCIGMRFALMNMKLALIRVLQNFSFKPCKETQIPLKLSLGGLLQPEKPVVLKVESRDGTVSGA

In the case of `CC(O)c1ccc(CCOc2ccc(CC3SC(=O)NC3=O)cc2)nc1` (racemic) [MIN-102, 5-[[4-[2-[5-(1-hydroxyethyl)pyridin-2-yl]ethoxy]phenyl]methyl]-1,3-thiazolidine-2,4-dione], the pIC50 against CYP1A2 [1], against CYP3A4 (reaction 1-OH-MDZ), against CYP3A4 (reaction 3-OH-OME), at CYP3A4 (reaction 6β-OH-TES) and against CYP3A4 (reaction SO-OME) was under 4.00 each time. In the data set with CYP1A2 [2], the “increase in activity of CYP1A2 probe reaction” value was “less than 20 % of the respective positive control induction”. For the same compound, the “stability in incubation medium” value in data set [3] is on record as “remained stable”. Further, the “increase in activity of CYP2B6 probe reaction” value with CYP2B6 was “less than 20 % of the respective positive control induction”. For the same compound, the “reversible or time-dependent inhibition towards major CYP enzymes” value in data set [4] is reported as “did not cause remarkable reversible or time-dependent inhibition”.
